In patent US20080076826A1, “POLYMORPHIC CRYSTAL OF 4'-{2-[ (1S, 2R) - 2- HYDROXY -2- (4-HYDROXYPHENYL) -1- METHYLETHYLAMINO] ETHOXY} - 3 - ISOPROPYL-3', 5' -DIMETHYLBIPHENYL - 4 - CARBOXYLIC ACID HYDROCHLORIDE” (KISSEI PHARMACEUTICAL CO., LTD., priority 2005, published 2008):

How the values were obtained:
Type in all cases: physicochemical
[1] = Solid stability (Test Example 1): purity after storage at 60° C., 75% relative humidity, 5 days; conditions: stored at 60° C. and relative humidity of 75% for 5 days; hydrochloride
Description: Each of (1) amorphous biphenylcarboxylic acid hydrochloride (purity: 97.22%), (2) α type crystal of biphenylcarboxylic acid hydrochloride (purity: 99.56%) and (3) β type crystal of biphenylcarboxylic acid hydrochloride (purity: 99.84%) was stored at 60° C. and at a relative humidity of 75% for 5 days. Purities after the storage were (1) 94.99%, (2) 99.55% and (3) 99.65%, respectively.

[2] = Solid stability (Test Example 2): purity after storage for 8 weeks under four conditions
Description: Each of (A) the α type crystal of biphenylcarboxylic acid hydrochloride (purity 99.8%) and (B) the γ type crystal of biphenylcarboxylic acid hydrochloride (purity 99.8%) were stored (1) at 40° C. for 8 weeks, (2) at 60° C. for 8 weeks, (3) at 40° C. and at a relative humidity of 75% for 8 weeks and (4) at 40° C. and at a relative humidity of 90% for 8 weeks.

[3] = Crystal form stability during preservation under usual conditions or medicine preparation steps; conditions: preservation under usual conditions (25° C., 60% relative humidity) or during pressurization, pulverization and like preparation steps
[4] = stored at 40° C. and relative humidity of 75% for 8 weeks
[5] = stored at 40° C. and relative humidity of 90% for 8 weeks

Question: With Cc1cc(-c2ccc(C(=O)O)c(C(C)C)c2)cc(C)c1OCCN[C@@H](C)[C@H](O)c1ccc(O)cc1.Cl [α type crystal, 4′-{2-[(1S,2R)-2-hydroxy-2-(4-hydroxyphenyl)-1-methylethylamino]ethoxy}-3-isopropyl-3′,5′-dimethylbiphenyl-4-carboxylic acid hydrochloride] as the compound, how does the “Purity after the storage” value [1] read?
Answer: 99.55%

Question: What about the “Purity after the storage” value [2, 4] of the same compound?
Answer: 99.58%

Question: What about the “Purity after the storage” value [2, 5] of the same compound?
Answer: 99.51%

Question: And the “Purity after the storage” value ([2]; stored at 40° C. for 8 weeks)?
Answer: 99.79%

Question: What about the “Purity after the storage” value ([2]; stored at 60° C. for 8 weeks) of the same compound?
Answer: 99.78%

Question: What about the “Change of crystal form” value [3] of the same compound?
Answer: do not cause mutual changes in the crystal forms

Question: For Cc1cc(-c2ccc(C(=O)O)c(C(C)C)c2)cc(C)c1OCCN[C@@H](C)[C@H](O)c1ccc(O)cc1.Cl [β type crystal, 4′-{2-[(1S,2R)-2-hydroxy-2-(4-hydroxyphenyl)-1-methylethylamino]ethoxy}-3-isopropyl-3′,5′-dimethylbiphenyl-4-carboxylic acid hydrochloride], which “Purity after the storage” value [1] is on record?
Answer: 99.65%

Question: What about the “Change of crystal form” value [3] of the same compound?
Answer: do not cause mutual changes in the crystal forms

Question: What does the source list for “4′-{2-[(1S,2R)-2-hydroxy-2-(4-hydroxyphenyl)-1-methylethylamino]ethoxy}-3-isopropyl-3′,5′-dimethylbiphenylcarboxylic acid hydrochloride [γ type crystal]”?
Answer: Purity after the storage [2, 4]: 99.87%; Purity after the storage [2, 5]: 98.20%; Purity after the storage ([2]; stored at 40° C. for 8 weeks): 99.82%; Purity after the storage ([2]; stored at 60° C. for 8 weeks): 99.88%; Change of crystal form [3]: do not cause mutual changes in the crystal forms

Question: With Cc1cc(-c2ccc(C(=O)O)c(C(C)C)c2)cc(C)c1OCCN[C@@H](C)[C@H](O)c1ccc(O)cc1.Cl [amorphous biphenylcarboxylic acid hydrochloride] [4′-{2-[(1S,2R)-2-hydroxy-2-(4-hydroxyphenyl)-1-methylethylamino]ethoxy}-3-isopropyl-3′,5′-dimethylbiphenyl-4-carboxylic acid hydrochloride, reference compound] as the compound, how does the “Purity after the storage” value [1] read?
Answer: 94.99%
